Measured values from patent US6624192B1, “Process for production of diacetylrhein” (Madaus AG, priority 1991, dated 2003).

Assays:
[1] = tested on: arthrosis induced by the intraarticular administration of vitamin A; experiment: Vitamin A arthrosis in rabbits; type: in vivo, rabbit; conditions: for Clinical signs of arthrosis (disturbances of movement): 7 rabbits
Procedure: The effectiveness of diacetylrhein was determined in chronic inflammation models after oral administration. The following experimental models were used: cotton pellet granuloma in rats and arthrosis in rabbits induced by the intraarticular administration of vitamin A. b) Vitamin A arthrosis. An arthrosis-like joint change was initiated in two groups each of 10 rabbits (white New Zealanders) by means of three intraarticular injections of 30,000 IU of Vitamin A over the course of 9 days. 56 days later, 10 animals were treated with 3 mg of diacetylrhein/kg/day for 8 weeks. […] Furthermore, the curative action of diacetylrhein was compared with that of acetylsalicylic acid on each of 7 rabbits which, after 6 days pre-treatment with three times 10,000 IU Vitamin A and a 26 day treatment-free interval for 8 weeks, received either 5 mg of diacetylrhein/kg/day (experimental group) or 15 mg of acetylsalicylic acid/kg/day (positive control group) or remained untreated (negative control group). […] In the negative control group, during the following 8 weeks, the clinical signs of a manifest arthrosis increased.

cotton pellet granuloma = experiment: Cotton pellet granuloma in rats; type: in vivo, rat
Procedure: The effectiveness of diacetylrhein was determined in chronic inflammation models after oral administration. The following experimental models were used: cotton pellet granuloma in rats and arthrosis in rabbits induced by the intraarticular administration of vitamin A. a) Cotton pellet granuloma in rats. Young sexually mature rats (n=10) were given 25, 50 or 100 mg diacetylrhein/kg or 5 mg indomethacin/kg or 100 mg acetylsalicylic acid/kg daily for 5 days. A control group only treated with water was also used. Implantation of the pellets took place on the first day of treatment.

gastric mucosa = experiment: Gastric mucosa changes in the rat; type: in vivo
in vivo = conditions: rat, mouse, cat
[2] = tested on: coxarthrosis and gonarthrosis; experiment: Clinical double-blind study against naproxen with placebo after-treatment; type: in vivo, patients; conditions: for Improvement in all test parameters (pain and movement symptoms, functional limitation, compatibility) in comparison with the initial values: 60 days
Procedure: 1. The action of diacetylrhein was investigated in coxarthrosis and gonarthrosis in 95 (49/46) patients in a double-blind study against naproxen and subsequent placebo after-treatment. The dosage administered was 50 mg of diacetylrhein twice daily or 750 mg of naproxen daily. The period of treatment was 60 days after a 7 day wash-out phase. The subsequent placebo treatment extended over 60 days.
Test parameters were the pain and movement symptoms according to a score scale, functional limitation and compatibility.

[3] = tested on: osteoarthrosis of the spine and of the knee; experiment: Clinical open study with physiotherapy control; type: in vivo, patients
Procedure: 2. In an open running study with control, there was investigated the action of diacetylrhein against osteoarthrosis of the spine and of the knee in 70 patients (35/35). The dosage administered was 100 mg of diacetylrhein per day. The period of treatment was 60 days and the period of observation was 75 days. The test parameters were pain and movement limitation. The parameters were evaluated according to a score system. The control group comprised 35 patients in the case of which exclusively physiotherapeutic measures were carried out. Physiotherapy was also carried out in the diacetylrhein treatment group.

localised arthrosis = experiment: Clinical single blind crossover study against naproxen; type: in vivo, patients
Procedure: 3. The action of diacetylrhein in the case of localised arthrosis in 20 patients was investigated in a single blind crossover study against naproxen. […] Subsequently, there followed a three day wash-out phase and a further treatment with 250 mg of naproxen twice daily for a further 20 days. In the second group, the reverse sequence was used. The period of treatment was, in all, 43 days. The test parameters of pain, compression pain, passive movement pain, functional limitation and swelling were determined according to a score system.

osteoarthrosis = experiment: Clinical randomised double blind compatibility study (oesophagogastroduodenoscopic findings); type: in vivo, patients; conditions: after 4 weeks
Procedure: 4. The action of diacetylrhein was investigated in 23 patients (12/11) with osteoarthrosis in a randomised double blind study using the “double dummy technique” (compatibility study). The dosage administered was 50 mg of diacetylrhein twice daily and 250 mg of naproxen three times daily. The period of treatment was 4 weeks. The test parameters were the oesophagogastroduodenoscopic findings before and after the therapy. Only patients with normal mucosal findings or with slight mucosal lesions (grade 1) were used in the study.

[4] = crossover study, 43 days in all

SMILES: CC(=O)Oc1ccccc1C(=O)O [acetylsalicylic acid, reference compound]
- Clinical signs of arthrosis (disturbances of movement) ([1]; 15 mg/kg/day for 8 weeks, positive control group): improved significantly

SMILES: CC(=O)Oc1cccc2c1C(=O)c1c(OC(C)=O)cc(C(=O)O)cc1C2=O [diacetylrhein, Diacetylrhein]
- Fresh and dry weights of the granuloma (cotton pellet granuloma; rats n=10, oral, 25, 50 or 100 mg/kg daily for 5 days, in comparison with the control group): significant and clearly dosage-dependent reduction
- Weights of the thymus and adrenals (cotton pellet granuloma; rats, during the 5 days treatment): did not change
- Action on granuloma compared with reference drugs (cotton pellet granuloma; rats, oral, 100 mg diacetylrhein/kg daily for 5 days vs 5 mg indomethacin/kg or 100 mg acetylsalicylic acid/kg): corresponded to about the action of 5 mg indomethacin or of 100 mg acetylsalicylic acid
- Clinical signs of arthrosis (disturbances of movement) ([1]; 5 mg/kg/day for 8 weeks, curative): improved significantly
- Macroscopically and microscopically recognisable joint changes ([1]; rabbits, 3 mg/kg/day for 8 weeks, in comparison with the control group): significantly reduced
- Erosions of the gastric mucosa (gastric mucosa; single administration of 400 mg/kg): did not give rise to any erosions
- Mucosal damage (gastric mucosa; twice daily 100 mg/kg over 3 days): did not initiate any mucosal damage
- LD50 (in vivo): 119 to 339 mg/kg
- LD50 (in vivo; po): 1900 to 7900 mg/kg
- Improvement in all test parameters (pain and movement symptoms, functional limitation, compatibility) in comparison with the initial values ([2]; 50 mg twice daily, P<0.01): statistically significant rate of improvement
- Night pain and pressure pain after discontinuation, in comparison with the naproxen/placebo collective ([2]; 30 days after discontinuation, 5% level): difference was also verified
- Spontaneous pain and active and passive movement pain after discontinuation, in comparison with the naproxen/placebo collective ([2]; days 90 and 120, placebo after-treatment, P<0.01): statistically significant superiority
- Effect after discontinuation of the treatment ([3]; 100 mg per day for 60 days, observation 75 days): continuing therapeutic effect (hang-over effect)
- Pain and movement limitation (all parameters, score system) versus control group ([3]; 100 mg per day, 60 days, plus physiotherapy, control physiotherapy only): statistically significant superiority
- Pain, compression pain, passive movement pain, functional limitation and swelling (score system) in comparison with naproxen (localised arthrosis; 50 mg twice daily for 20 days vs 250 mg naproxen twice daily for 20 days, crossover): superiority
- Clinical laboratory parameters (localised arthrosis; [4]): no changes
- Side effects (localised arthrosis; [4]): No noteworthy side effects
- Patients with mucosal lesions of grade 2 (endoscopic findings) (osteoarthrosis; 50 mg twice daily, one case): 10%

SMILES: CC(C)Cc1ccc(C(C)C(=O)O)cc1 (stereo not shown) [ibuprofen]
- Erosions of the gastric mucosa (gastric mucosa; in vivo, 200 mg/kg): distinct mucosal damages

SMILES: COc1ccc2c(c1)c(CC(=O)O)c(C)n2C(=O)c1ccc(Cl)cc1 [indomethacin]
- Mucosal damage (gastric mucosa; in vivo, 10 mg/kg): certainly did
- Diameter of the erosions (gastric mucosa; in vivo, 10 mg/kg, 3 days): 1 to 3 mm
- Erosions of the gastric mucosa (gastric mucosa; in vivo, 20 mg/kg): distinct mucosal damages

SMILES: COc1ccc2cc([C@H](C)C(=O)O)ccc2c1 [naproxen, reference compound]
- Improvement in all test parameters (pain and movement symptoms, functional limitation, compatibility) in comparison with the initial values ([2]; 750 mg daily, P<0.05): statistically significant rate of improvement
- Patients with mucosal lesions of grade 2, 3 and 4 (endoscopic findings) (osteoarthrosis; 250 mg three times daily, 5 patients): 50%
